“Also recorded” adds a separate entry of the source.
How the values were obtained:
Recombinant human MAO-A [1] = molecular target: T1, Recombinant human MAO-A (Homo sapiens, UniProt P21397); assay: biochemical; format: biochemical; details: for remaining activity at 10 µM / IC50: means ± SD of duplicate experiments; for remaining activity at 10 µM: read-out: Residual activity at 10 µM (%) MAO-A; for SI (selectivity index): ratio of high IC50/low IC50 for MAO inhibition (compound 1: MAO-A versus MAO-B; compound 2: MAO-B versus MAO-A)
T1 construct: purchased Sigma-Aldrich (USA)
T1 sequence (P21397 1-527): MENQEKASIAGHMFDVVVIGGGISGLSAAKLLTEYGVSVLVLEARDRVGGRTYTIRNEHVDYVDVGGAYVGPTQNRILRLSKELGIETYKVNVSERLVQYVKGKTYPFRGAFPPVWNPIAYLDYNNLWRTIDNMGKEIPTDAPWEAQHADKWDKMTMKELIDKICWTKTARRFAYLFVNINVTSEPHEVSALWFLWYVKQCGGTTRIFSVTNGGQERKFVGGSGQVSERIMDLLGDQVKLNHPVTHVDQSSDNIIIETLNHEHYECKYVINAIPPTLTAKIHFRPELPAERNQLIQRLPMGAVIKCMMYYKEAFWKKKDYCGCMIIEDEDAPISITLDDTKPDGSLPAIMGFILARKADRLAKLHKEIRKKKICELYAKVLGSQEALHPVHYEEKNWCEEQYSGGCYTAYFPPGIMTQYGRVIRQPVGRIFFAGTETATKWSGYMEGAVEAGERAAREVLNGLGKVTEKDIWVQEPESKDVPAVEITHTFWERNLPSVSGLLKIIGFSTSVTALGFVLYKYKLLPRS
Procedure: (§1) All other chemicals were of reagent grade.
(§2) MAO-A and MAO-B inhibitory activities were determined using a continuous spectrophotometric method as described previously. […] AChE activities were assayed as described by Ellman et al., with slight modification. The inhibitory activities of AChE and BChE were measured after the enzyme was preincubated with inhibitors for 15 min and before adding DTNB and the substrate (ATCI and BTCI, respectively). […] Reaction rates were expressed as changes in absorbance per minute.

human MAO-B [2] = molecular target: T2, human MAO-B (Homo sapiens, UniProt P27338); assay: biochemical; format: biochemical; details: for remaining activity at 10 µM / IC50: means ± SD of duplicate experiments; for remaining activity at 10 µM: read-out: Residual activity at 10 µM (%) MAO-B
T2 construct: purchased Sigma-Aldrich (USA)
T2 sequence (P27338 1-520): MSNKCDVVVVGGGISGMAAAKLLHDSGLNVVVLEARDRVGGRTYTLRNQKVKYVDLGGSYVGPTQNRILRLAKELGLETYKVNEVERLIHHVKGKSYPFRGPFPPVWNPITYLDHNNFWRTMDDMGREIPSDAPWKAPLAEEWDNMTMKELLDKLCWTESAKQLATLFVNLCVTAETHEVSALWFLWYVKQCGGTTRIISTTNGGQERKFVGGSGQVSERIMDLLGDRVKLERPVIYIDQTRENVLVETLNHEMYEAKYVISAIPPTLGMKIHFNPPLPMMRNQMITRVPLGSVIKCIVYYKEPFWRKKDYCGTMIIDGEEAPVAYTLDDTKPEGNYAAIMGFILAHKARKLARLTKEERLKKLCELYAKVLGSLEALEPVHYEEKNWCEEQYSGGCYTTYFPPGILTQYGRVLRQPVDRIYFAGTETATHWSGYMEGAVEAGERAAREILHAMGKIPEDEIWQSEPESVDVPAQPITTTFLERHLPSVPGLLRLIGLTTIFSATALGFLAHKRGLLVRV
Procedure: as §1, §2

[3] = molecular target: T3, AChE from Electrophorus electricus (Electrophorus electricus, UniProt O42275); assay: biochemical; details: means ± SD of duplicate experiments; for remaining activity at 10 µM: read-out: Residual activity at 10 µM (%) AChE
T3 construct: AChE from Electrophorus electricus; purchased Sigma-Aldrich (USA)
T3 sequence (O42275 24-633): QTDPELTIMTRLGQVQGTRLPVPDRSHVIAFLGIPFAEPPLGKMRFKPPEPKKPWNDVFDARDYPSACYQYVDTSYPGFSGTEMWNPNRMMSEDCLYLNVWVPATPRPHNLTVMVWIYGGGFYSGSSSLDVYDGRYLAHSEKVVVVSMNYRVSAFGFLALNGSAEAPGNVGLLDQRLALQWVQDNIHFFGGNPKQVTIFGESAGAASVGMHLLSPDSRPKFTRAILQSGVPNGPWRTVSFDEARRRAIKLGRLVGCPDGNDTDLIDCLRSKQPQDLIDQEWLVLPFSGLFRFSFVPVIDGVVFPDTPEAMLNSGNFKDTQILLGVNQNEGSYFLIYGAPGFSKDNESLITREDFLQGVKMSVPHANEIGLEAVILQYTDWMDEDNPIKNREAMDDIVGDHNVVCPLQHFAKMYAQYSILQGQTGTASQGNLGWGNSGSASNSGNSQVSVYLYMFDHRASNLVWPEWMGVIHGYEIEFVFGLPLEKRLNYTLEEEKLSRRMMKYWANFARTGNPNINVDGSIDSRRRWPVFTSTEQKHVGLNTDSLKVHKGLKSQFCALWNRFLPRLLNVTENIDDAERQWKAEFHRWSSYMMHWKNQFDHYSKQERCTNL

BChE from equine serum = molecular target: T4, BChE from equine serum (Equus caballus, UniProt P81908); assay: biochemical; details: means ± SD of duplicate experiments, read-out: Residual activity at 10 µM (%) BChE
T4 construct: BChE from equine serum; purchased Sigma-Aldrich (USA); host or cells: equine serum
T4 sequence (P81908 whole entry): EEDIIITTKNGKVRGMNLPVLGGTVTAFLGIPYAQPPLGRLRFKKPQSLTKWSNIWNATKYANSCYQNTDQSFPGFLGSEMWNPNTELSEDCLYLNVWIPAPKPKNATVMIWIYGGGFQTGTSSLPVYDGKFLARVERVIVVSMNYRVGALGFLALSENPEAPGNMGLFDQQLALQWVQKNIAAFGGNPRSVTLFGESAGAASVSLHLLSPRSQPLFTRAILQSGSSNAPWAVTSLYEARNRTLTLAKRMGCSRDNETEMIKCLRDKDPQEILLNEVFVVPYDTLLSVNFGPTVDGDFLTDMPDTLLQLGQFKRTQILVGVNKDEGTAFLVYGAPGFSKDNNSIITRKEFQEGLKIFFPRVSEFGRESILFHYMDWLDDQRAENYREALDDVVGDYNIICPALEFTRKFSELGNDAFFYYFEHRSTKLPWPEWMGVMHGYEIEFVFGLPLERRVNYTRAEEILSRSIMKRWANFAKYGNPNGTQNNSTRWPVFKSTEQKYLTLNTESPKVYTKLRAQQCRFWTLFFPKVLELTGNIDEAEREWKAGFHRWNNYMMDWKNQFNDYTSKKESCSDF
Procedure: as §1, §2

BACE-1 = molecular target: T5, BACE-1 (Homo sapiens, UniProt P56817); assay: BACE-1 Activity Detection Kit, fluorescence assay; format: biochemical; details: means ± SD of duplicate experiments, read-out: Residual activity at 10 µM (%) BACE-1
T5 construct: purchased Sigma-Aldrich (USA)
T5 sequence (P56817 46-501, species assumed): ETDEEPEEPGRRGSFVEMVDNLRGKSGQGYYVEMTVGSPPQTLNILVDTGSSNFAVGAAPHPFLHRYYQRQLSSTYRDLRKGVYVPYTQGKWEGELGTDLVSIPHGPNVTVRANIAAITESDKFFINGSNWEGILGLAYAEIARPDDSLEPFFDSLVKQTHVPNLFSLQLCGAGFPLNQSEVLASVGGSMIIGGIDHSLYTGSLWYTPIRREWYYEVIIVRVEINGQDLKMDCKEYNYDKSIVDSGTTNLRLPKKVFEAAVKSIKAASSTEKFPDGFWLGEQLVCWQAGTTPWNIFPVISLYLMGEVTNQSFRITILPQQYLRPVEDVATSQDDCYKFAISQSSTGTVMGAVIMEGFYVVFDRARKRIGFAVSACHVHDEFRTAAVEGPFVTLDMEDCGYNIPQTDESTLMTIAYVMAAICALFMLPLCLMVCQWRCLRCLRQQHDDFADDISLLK

Recombinant human MAO-A [4] = molecular target: T1, Recombinant human MAO-A; assay: MAO-A inhibition kinetics (Lineweaver-Burk and secondary plots); format: biochemical; details: for Mode of MAO-A inhibition: Lineweaver-Burk plots; for Ki: secondary plots of Lineweaver-Burk slopes, kynuramine 0.0075-0.12 mM
Procedure: (§3) Kinetic parameters, inhibition types, and […] (Ki) values of potent MAO-A and MAO-B inhibitors (i.e., compound 1 for MAO-A; compound 2 for MAO-A and MAO-B) were determined, as previously described. […]; Inhibitory patterns and Ki values were determined using Lineweaver-Burk plots and secondary plots of their slopes.
(§4) Modes of MAO-A inhibition by compound 1 and modes of MAO-A and MAO-B inhibition by compound 2 were investigated using Lineweaver-Burk plots. […].
(§5) Fig. 3 Lineweaver-Burk plots of monoamine oxidase (MAO)-A inhibition by compound 1 (A) and of MAOA and MAO-B inhibition by compound 2 (C and E for respective MOA isoforms) as well as their respective secondary plots, as slopes of Lineweaver-Burk plots vs. inhibitor concentrations (B, D, and F). […]. […] The initial velocity was expressed as an increase in absorbance per min.

Recombinant human MAO-A [5] = molecular target: T1, Recombinant human MAO-A; assay: Reversibility of MAO-A inhibition by dialysis; format: biochemical; details: for Reversibility of MAO-A inhibition: dialysis; for Relative activity of MAO-A, dialyzed (AD) / Relative activity of MAO-A, undialyzed (AU): inhibitor at twice the IC50, preincubated 30 min; for Relative activity of MAO-A, dialyzed (AD): after dialysis
Procedure: (§6) After the compounds or reference inhibitors were preincubated with MAOs for 30 min, residual activities for undialyzed and dialyzed samples were measured. The relative values for undialyzed (AU) and dialyzed (AD) activities were then calculated, and the reversibilities were determined by comparing the AU and AD values of the inhibitors with those of the references.
(§7) Results are the averages of experiments performed in duplicate.

human MAO-B [6] = molecular target: T2, human MAO-B; assay: MAO-B inhibition kinetics (Lineweaver-Burk and secondary plots); format: biochemical
Procedure: as §3, §4, §5

human MAO-B [7] = molecular target: T2, human MAO-B; assay: Reversibility of MAO-B inhibition by dialysis; format: biochemical
Procedure: as §6, §7

MAO-A = details: cited from earlier work
MAO-B = details: cited from earlier work

With CC(C)c1cc(=O)c2c(O)cc(O)cc2o1 [Compound 1, 5,7-dihydroxy-2-isopropyl-4H-chromen-4-one] the remaining activity at 10 µM (Recombinant human MAO-A [1]) was 25.4 ± 2.24%, the IC50 (Recombinant human MAO-A [1]) was 2.7 ± 0.034 µM and the “SI (selectivity index)” value (Recombinant human MAO-A [1]) was 10.0. The remaining activity at 10 µM (human MAO-B [2]) was 71.5 ± 5.45%, the IC50 (human MAO-B [2]) was 27 ± 2.78 µM and the remaining activity at 10 µM [3] was 70.5 ± 6.31%. For the same compound, the IC50 [3] was 31.7 ± 2.39 µM, the remaining activity at 10 µM (BChE from equine serum) was 80.7 ± 3.46% and the remaining activity at 10 µM (BACE-1) was 85.8 ± 0.28%. For the same compound, the “Mode of MAO-A inhibition” value (Recombinant human MAO-A [4]) was “competitive inhibitor”, the Ki (Recombinant human MAO-A [4]) was 0.94 ± 0.28 µM and the “Reversibility of MAO-A inhibition” value (Recombinant human MAO-A [5]) was “reversible inhibitor”. For the same compound, the “Relative activity of MAO-A, dialyzed (AD)” value (Recombinant human MAO-A [5]) was 90.9% and the “Relative activity of MAO-A, undialyzed (AU)” value (Recombinant human MAO-A [5]) was 35.5%.

In the case of CCC(C)c1cc(=O)c2c(O)cc(O)cc2o1 (stereo not shown) [Compound 2, 5,7-dihydroxy-2-(1-methylpropyl)-4H-chromen-4-one], the remaining activity at 10 µM (Recombinant human MAO-A [1]) is reported as 37.8 ± 0.82%, the IC50 (Recombinant human MAO-A [1]) is reported as 6.92 ± 0.067 µM and the “SI (selectivity index)” value (Recombinant human MAO-A [1]) is reported as 2.02. The remaining activity at 10 µM (human MAO-B [2]) was 34.4 ± 7.95%, the IC50 (human MAO-B [2]) was 3.42 ± 1.47 µM and the remaining activity at 10 µM [3] was 88.3 ± 2.54%. The remaining activity at 10 µM (BChE from equine serum) was 96.4 ± 4.27%, the remaining activity at 10 µM (BACE-1) was 98.3 ± 0.27% and the “Mode of MAO-A inhibition” value (Recombinant human MAO-A [4]) was “competitive inhibitor”. For the same compound, the Ki (Recombinant human MAO-A [4]) was 3.57 ± 0.6 µM, the “Mode of MAO-B inhibition” value (human MAO-B [6]; Lineweaver-Burk plots) was “competitive inhibitor” and the Ki (human MAO-B [6]; secondary plots of Lineweaver-Burk slopes, benzylamine 0.03-0.6 mM) was 1.89 ± 0.014 µM. The “Reversibility of MAO-A inhibition” value (Recombinant human MAO-A [5]) was “reversible inhibitor”, the “Relative activity of MAO-A, dialyzed (AD)” value (Recombinant human MAO-A [5]) was 79.4% and the “Relative activity of MAO-A, undialyzed (AU)” value (Recombinant human MAO-A [5]) was 35.6%. The “Reversibility of MAO-B inhibition” value (human MAO-B [7]; dialysis) was “reversible inhibitor”, the “Relative activity of MAO-B, dialyzed (AD)” value (human MAO-B [7]; inhibitor at twice the IC50, preincubated 30 min, after dialysis) was 76.7% and the “Relative activity of MAO-B, undialyzed (AU)” value (human MAO-B [7]; inhibitor at twice the IC50, preincubated 30 min, undialyzed) was 34.8%.

In the case of COc1cccc2nc3ccccc3nc12 [Compound 3, 1-methoxyphenazine], the “Inhibitory activity against MAO-A (in words)” value (Recombinant human MAO-A [1]) is reported as “did not inhibit; also recorded: little inhibitory activity”, the remaining activity at 10 µM (Recombinant human MAO-A [1]) is reported as 93.6 ± 4.11% and the “Inhibitory activity against MAO-B (in words)” value (human MAO-B [2]) is reported as “did not inhibit; also recorded: little inhibitory activity”. It also gave a remaining activity at 10 µM (human MAO-B [2]) of 96.9 ± 2.65%, a remaining activity at 10 µM [3] of 83 ± 8.24% and a remaining activity at 10 µM (BChE from equine serum) of 97 ± 2.72%. It also gave a remaining activity at 10 µM (BACE-1) of 79.9 ± 0.73%.

For CC1CC(=O)c2c(O)cccc2O1 (stereo not shown) [HMC, 5-hydroxy-2-methyl-chroman-4-one], the IC50 (MAO-A) is given as 14 µM and the IC50 (MAO-B) is given as 3.23 µM.

In the case of O=c1oc2cc(O)ccc2c2ccc(O)cc12 [UroA], the IC50 (MAO-A) is listed as 5.88 µM.

For O=c1oc2cc(O)ccc2c2ccccc12 [UroB], the IC50 (MAO-A) is given as 0.88 µM.

For O=c1oc2cc(O)ccc2c2cc(O)c(O)cc12 [Ur°C], the IC50 (MAO-A) is listed as 29.6 µM.

For COc1cc(O)c2c(=O)oc3cc(O)cc(C)c3c2c1 [alternariol monomethyl ether], the IC50 (MAO-A) is given as 1.71 µM.

In the case of CN1C(=N)N(C)/C(=C/c2c[nH]c3ccccc23)C1=O [aplysinopsin], the IC50 (MAO-A) is given as 0.0056 µM.

From paper PMC9706024, “Chromenone Derivatives as Monoamine Oxidase Inhibitors from Marine-Derived MAR4 Clade Streptomyces sp. CNQ-031” (Journal of Microbiology and Biotechnology, 2021)
